Source: ChEMBL document CHEMBL1275342 (J Med Chem, 2010)

How the values were obtained:
[1] = target: T1, Serine/threonine-protein kinase Nek2 (Homo sapiens, UniProt P51955)
T1 sequence (P51955 whole entry): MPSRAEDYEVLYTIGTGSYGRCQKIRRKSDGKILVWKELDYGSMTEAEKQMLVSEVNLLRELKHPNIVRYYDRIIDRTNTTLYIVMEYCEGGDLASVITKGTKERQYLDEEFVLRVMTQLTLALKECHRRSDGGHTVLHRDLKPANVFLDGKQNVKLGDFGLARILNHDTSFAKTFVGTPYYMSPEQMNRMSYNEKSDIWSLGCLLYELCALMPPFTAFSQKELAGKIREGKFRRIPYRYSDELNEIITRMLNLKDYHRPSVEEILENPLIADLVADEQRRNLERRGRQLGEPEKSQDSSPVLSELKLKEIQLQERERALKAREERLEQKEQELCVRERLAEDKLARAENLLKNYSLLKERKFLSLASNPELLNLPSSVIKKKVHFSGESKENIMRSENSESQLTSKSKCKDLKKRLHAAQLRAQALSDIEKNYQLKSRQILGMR
Description: Inhibition of NEK2 by microfluidic assay

[2] = target: T2, Serine/threonine-protein kinase Chk1 (Homo sapiens, UniProt O14757); test: Inhibition of CHK1
T2 sequence (O14757 whole entry): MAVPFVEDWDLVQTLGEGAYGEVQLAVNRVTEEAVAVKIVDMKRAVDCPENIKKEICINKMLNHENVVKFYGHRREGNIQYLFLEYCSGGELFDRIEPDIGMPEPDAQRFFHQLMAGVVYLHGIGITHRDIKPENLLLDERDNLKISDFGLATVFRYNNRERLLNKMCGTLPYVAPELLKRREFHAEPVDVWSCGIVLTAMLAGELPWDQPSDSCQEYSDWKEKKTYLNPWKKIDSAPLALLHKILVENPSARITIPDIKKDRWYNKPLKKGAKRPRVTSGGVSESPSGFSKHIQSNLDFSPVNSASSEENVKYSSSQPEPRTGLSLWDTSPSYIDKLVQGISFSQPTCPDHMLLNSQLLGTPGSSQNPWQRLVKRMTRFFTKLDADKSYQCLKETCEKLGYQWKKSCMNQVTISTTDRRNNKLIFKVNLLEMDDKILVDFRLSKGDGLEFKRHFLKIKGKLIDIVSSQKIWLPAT

[3] = target: T3, Serine/threonine-protein kinase Nek1 (Homo sapiens, UniProt Q96PY6); test: Inhibition of NEK1 after 1 hr at room temperature by caliper method
T3 sequence (Q96PY6 whole entry): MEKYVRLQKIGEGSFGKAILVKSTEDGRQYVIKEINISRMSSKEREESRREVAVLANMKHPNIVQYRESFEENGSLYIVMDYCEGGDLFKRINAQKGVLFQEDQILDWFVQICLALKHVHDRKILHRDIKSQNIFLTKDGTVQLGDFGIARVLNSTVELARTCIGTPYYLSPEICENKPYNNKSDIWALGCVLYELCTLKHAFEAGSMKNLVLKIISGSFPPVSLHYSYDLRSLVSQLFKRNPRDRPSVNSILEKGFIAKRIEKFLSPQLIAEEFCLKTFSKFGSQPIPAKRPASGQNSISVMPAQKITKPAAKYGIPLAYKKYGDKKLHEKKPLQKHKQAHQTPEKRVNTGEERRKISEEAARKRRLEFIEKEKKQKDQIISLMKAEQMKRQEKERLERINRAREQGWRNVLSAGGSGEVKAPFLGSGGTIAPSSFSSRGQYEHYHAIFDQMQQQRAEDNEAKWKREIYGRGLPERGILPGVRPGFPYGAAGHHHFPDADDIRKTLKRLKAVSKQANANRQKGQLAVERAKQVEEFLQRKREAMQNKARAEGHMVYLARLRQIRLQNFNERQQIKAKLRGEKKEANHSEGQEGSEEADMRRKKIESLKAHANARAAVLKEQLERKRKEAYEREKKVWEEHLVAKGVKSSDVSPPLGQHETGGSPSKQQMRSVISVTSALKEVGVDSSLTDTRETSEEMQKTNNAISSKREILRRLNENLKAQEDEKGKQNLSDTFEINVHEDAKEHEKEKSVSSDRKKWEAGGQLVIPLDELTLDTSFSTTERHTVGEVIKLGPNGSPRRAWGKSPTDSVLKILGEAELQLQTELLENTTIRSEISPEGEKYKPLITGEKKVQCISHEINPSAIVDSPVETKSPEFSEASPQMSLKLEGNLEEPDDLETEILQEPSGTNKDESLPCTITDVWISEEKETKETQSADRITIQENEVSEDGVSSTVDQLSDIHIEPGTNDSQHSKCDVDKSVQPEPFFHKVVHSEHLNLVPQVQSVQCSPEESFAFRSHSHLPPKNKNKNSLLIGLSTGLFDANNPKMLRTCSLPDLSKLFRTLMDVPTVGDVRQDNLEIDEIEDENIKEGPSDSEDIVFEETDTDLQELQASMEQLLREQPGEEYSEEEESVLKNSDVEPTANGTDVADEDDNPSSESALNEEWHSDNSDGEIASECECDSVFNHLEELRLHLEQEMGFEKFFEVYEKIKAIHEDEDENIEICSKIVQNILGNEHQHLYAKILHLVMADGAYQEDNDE

[4] = target: Serine/threonine-protein kinase PLK1 (Homo sapiens, UniProt P53350); test: Inhibition of PLK1 after 75 mins at room temperature by caliper method
[5] = target: T1, Serine/threonine-protein kinase Nek2; remark: listed apart in the source
Description: Inhibition of NEK2 autophosphorylation after 2 hrs by DELFIA assay

[6] = target: T1, Serine/threonine-protein kinase Nek2; remark: listed apart in the source
Description: Inhibition of NEK2 assessed as inhibition of substrate phosphorylation

Serine/threonine-protein kinase PLK1, sequence (P53350 whole entry): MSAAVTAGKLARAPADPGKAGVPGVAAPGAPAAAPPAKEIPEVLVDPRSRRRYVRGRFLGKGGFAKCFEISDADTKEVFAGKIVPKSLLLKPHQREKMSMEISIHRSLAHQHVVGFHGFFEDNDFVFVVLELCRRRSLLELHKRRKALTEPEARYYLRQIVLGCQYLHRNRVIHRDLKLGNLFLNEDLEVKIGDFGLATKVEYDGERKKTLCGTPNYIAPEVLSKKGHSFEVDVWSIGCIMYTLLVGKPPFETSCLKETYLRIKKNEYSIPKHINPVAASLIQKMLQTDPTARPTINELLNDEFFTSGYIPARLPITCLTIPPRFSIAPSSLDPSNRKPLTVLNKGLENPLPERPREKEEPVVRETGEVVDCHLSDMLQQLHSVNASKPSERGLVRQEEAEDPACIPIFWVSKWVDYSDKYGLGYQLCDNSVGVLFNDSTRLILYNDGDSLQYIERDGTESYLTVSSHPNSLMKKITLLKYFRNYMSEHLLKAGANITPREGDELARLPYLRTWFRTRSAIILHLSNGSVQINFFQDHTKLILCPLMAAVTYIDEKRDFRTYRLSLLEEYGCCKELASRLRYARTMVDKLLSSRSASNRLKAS

| SMILES | IC50 [1] [µM] | also measured |
| --- | --- | --- |
| COc1ccc(-c2cnc(N)c(N3CCC(C(=O)O)CC3)n2)cc1 | 19.8 |  |
| COc1cc(-c2cnc(N)c(N3CC[C@@H](C(=O)O)[C@@H](C)C3)n2)cc(OC)c1OC (racemic) | 0.72 |  |
| Nc1ncc(-c2sccc2C2CC2)nc1N1CCC(C(=O)O)CC1 | 1.6 |  |
| COc1cc(-c2cnc(N)c(-c3ccc(C(=O)O)cc3C)n2)cc(OC)c1OC | > 50 |  |
| COc1cc(-c2cnc(N)c(N3CCC(C(N)=O)CC3)n2)cc(OC)c1OC | 5.7 |  |
| CCC[C@H]1CN(c2nc(-c3cc(OC)c(OC)c(OC)c3)cnc2N)CC[C@H]1C(=O)O (racemic) | 11.2 |  |
| COc1cc(-c2cnc(N)c(N3CC[C@@H](C(=O)O)[C@@H](C)[C@H]3C)n2)cc(OC)c1OC |  | IC50 [2]: > 100 µM; IC50 [3]: 0.17 µM; IC50 [4]: 19.4 µM |
| COc1cc(-c2cnc(N)c(N3CC[C@@H](C(=O)O)[C@@H](C4CC4)C3)n2)cc(OC)c1OC (racemic) | 38.3 |  |
| Nc1ncc(-c2ccsc2)nc1N1CCC(C(=O)O)CC1 | 7.2 |  |
| CCc1ccsc1-c1cnc(N)c(N2CCC(C(=O)O)CC2)n1 | 2.1 | IC50 [2]: > 100 µM; IC50 [5]: 0.72 µM; IC50 [6]: 1.9 µM; IC50 [3]: 22.5 µM; IC50 [4]: 8.5 µM |
| COc1cc(-c2cnc(N)c(N3CC[C@@H](C(=O)O)C[C@H]3C)n2)cc(OC)c1OC (racemic) | 1.2 |  |
| COc1ccc(-c2cnc(N)c(N3CCC(C(=O)O)CC3)n2)cc1OC | 1.9 |  |
| CCc1cc(-c2nc(-c3cc(OC)c(OC)c(OC)c3)cnc2N)ccc1C(=O)O | 26.2 |  |
| COc1cc(OC)cc(-c2cnc(N)c(N3CCC(C(=O)O)CC3)n2)c1 | 1.9 |  |
| Nc1ncc(-c2cccs2)nc1N1CCC(C(=O)O)CC1 | 4.3 |  |
| CC[C@@H]1C[C@H](C(=O)O)CCN1c1nc(-c2cc(OC)c(OC)c(OC)c2)cnc1N (racemic) | 1.4 |  |
| COc1cc(-c2cnc(N)c(N3CCCCC3)n2)cc(OC)c1OC | > 50 |  |
| COC(=O)C1CCN(c2nc(-c3cc(OC)c(OC)c(OC)c3)cnc2N)CC1 | 18.3 |  |
| CC[C@H]1CN(c2nc(-c3cc(OC)c(OC)c(OC)c3)cnc2N)CC[C@@H]1C(=O)O (racemic) | 11.3 |  |
| Nc1ncc(-c2ccccc2)nc1N1CCC(C(=O)O)CC1 | 7.8 |  |
| COc1cc(-c2cnc(N)c(N3CC[C@@H](C(=O)O)C[C@H]3C(C)C)n2)cc(OC)c1OC (racemic) | 5.9 |  |
| COc1cc(-c2cnc(N)c(-c3ccc(C(=O)O)cc3)n2)cc(OC)c1OC |  | IC50 [5]: 0.71 µM; IC50 [6]: 1.6 µM |
| COc1cc(-c2cnc(N)c(N3CC[C@@H](C(=O)O)[C@@H](C)C3)n2)cc(OC)c1OC | 0.39 |  |
| COc1cc(-c2cnc(N)c(N3CC[C@H](C(=O)O)[C@H](C)C3)n2)cc(OC)c1OC | 10.8 |  |
| Nc1ncc(-c2sccc2C2CCCC2)nc1N1CCC(C(=O)O)CC1 | 3.4 |  |
| COc1cc(-c2cnc(N)c(N3CCC(C(=O)O)CC3)n2)cc(OC)c1OC |  | IC50 [2]: > 100 µM; IC50 [3]: 2.6 µM; IC50 [4]: 22.6 µM |
| COc1cc(-c2cnc(N)c(N3CC[C@H](C(=O)O)[C@@H](C)C3)n2)cc(OC)c1OC (racemic) | 2.7 |  |
| Nc1nccnc1N1CCC(C(=O)O)CC1 | 48.5 |  |
| CCC[C@@H]1C[C@H](C(=O)O)CCN1c1nc(-c2cc(OC)c(OC)c(OC)c2)cnc1N (racemic) | 5.4 |  |
